Experimental data taken from patent US10160755B2 (Plexxikon Inc., priority 2015, dated 2018).

Legend:
FLT3-D835Y = target: T1, FLT3-D835Y (Homo sapiens, UniProt P36888, D835Y); experiment: FLT3-D835Y biochemical kinase assay (AlphaScreen)
T1 construct: purchased Invitrogen PV3967
T1 sequence (P36888 27-993 D835Y): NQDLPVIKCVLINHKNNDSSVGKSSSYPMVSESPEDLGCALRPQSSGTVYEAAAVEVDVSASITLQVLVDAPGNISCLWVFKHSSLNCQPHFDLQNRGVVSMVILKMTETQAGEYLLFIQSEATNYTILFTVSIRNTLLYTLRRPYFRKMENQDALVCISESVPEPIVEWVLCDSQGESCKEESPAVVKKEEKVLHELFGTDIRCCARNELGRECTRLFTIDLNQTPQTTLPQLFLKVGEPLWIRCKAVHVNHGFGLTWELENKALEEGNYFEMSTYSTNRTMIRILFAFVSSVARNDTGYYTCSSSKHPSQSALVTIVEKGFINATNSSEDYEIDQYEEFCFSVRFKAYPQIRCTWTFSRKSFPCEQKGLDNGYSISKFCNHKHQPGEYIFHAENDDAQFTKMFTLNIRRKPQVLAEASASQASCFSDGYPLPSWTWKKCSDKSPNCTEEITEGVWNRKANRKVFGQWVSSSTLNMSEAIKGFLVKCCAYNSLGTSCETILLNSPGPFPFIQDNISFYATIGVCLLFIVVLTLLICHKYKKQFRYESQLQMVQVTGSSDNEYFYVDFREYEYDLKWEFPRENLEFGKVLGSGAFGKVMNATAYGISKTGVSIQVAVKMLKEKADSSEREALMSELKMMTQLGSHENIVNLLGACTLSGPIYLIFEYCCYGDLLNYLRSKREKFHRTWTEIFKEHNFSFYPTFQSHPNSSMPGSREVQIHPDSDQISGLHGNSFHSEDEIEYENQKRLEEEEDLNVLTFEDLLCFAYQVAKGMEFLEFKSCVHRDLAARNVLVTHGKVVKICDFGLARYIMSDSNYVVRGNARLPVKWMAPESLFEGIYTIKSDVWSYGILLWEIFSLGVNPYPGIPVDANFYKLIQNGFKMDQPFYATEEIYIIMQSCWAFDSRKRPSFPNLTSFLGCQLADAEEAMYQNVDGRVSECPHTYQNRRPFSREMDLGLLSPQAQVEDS
Outline: (§1)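 Compounds were tested against recombinant enzyme using AlphaScreen detection of tyrosine-phosphorylated biotin-poly(Glu4-Tyr) (30 nM final). The ATP concentration differed by construct: 10 μM for D835Y, 100 μM for ITD.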

c-Kit = c-Kit (Homo sapiens, UniProt P10721); experiment: c-Kit biochemical assay (per US 2007/0032519)
Outline: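 Biochemical kinase inhibition run per US 2007/0032519; values reported as binned IC50 ranges (0.0001–1 μM, 1–10 μM, 10–200 μM).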

FLT3-ITD = target: T2, FLT3-ITD (Homo sapiens, UniProt P36888); experiment: FLT3-ITD biochemical kinase assay (AlphaScreen)
T2 construct: FLT3-ITD; Invitrogen #PV6190
T2 sequence (P36888 1-993): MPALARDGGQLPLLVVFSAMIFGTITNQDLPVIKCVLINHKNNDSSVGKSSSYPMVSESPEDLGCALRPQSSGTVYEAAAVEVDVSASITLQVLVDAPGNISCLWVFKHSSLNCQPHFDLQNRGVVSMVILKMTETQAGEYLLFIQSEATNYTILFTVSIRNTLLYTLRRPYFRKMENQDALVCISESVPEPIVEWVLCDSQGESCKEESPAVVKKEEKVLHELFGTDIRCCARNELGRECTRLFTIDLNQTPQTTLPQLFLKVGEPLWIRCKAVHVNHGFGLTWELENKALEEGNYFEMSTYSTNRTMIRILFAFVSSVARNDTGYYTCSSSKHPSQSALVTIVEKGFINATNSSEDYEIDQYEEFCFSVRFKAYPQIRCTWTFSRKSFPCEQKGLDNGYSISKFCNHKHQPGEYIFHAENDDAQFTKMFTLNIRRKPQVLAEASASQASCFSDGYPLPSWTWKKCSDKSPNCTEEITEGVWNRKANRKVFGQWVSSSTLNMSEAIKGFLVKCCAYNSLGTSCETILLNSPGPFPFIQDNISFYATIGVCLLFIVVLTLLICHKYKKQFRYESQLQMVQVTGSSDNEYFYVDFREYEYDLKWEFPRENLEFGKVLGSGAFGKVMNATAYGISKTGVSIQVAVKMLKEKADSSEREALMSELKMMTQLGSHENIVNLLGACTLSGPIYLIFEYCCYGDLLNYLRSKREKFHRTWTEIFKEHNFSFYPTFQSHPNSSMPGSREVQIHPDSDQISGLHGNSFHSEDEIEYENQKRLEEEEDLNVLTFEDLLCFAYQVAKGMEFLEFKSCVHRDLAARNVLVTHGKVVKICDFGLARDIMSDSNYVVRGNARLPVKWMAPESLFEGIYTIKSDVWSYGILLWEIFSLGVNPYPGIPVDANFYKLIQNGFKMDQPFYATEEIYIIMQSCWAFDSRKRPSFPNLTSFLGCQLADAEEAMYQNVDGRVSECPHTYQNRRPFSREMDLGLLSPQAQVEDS
Outline: as §1

Chain of c-Kit (P10721 26-976): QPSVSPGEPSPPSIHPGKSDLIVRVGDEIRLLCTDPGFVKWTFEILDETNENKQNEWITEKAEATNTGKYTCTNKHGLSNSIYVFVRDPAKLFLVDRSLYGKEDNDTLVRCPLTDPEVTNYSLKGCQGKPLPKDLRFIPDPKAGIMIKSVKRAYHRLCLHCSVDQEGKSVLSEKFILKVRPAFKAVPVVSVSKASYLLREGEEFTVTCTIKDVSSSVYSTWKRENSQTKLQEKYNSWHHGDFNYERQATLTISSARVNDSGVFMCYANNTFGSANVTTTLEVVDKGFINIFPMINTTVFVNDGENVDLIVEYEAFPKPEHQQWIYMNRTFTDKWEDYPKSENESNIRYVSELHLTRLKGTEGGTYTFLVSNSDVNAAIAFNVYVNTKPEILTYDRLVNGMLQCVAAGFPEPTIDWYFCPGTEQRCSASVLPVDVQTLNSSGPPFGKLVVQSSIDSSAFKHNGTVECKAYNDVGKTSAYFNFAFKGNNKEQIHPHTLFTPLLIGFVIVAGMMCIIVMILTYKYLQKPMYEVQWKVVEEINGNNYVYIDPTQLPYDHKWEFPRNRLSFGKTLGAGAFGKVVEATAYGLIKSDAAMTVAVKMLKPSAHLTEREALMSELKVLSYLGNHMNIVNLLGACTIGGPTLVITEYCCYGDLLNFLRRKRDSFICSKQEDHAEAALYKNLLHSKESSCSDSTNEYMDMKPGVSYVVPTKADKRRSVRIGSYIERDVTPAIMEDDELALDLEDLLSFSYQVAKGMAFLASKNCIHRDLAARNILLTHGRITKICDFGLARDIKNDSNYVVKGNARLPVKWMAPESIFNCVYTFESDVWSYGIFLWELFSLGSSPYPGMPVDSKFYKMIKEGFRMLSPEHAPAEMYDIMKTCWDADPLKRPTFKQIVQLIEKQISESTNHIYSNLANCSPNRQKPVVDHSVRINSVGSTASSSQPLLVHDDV

| IC50 (FLT3-D835Y) [µM] | IC50 (c-Kit) [µM] | IC50 (FLT3-ITD) [µM] | Structure (SMILES) |
| --- | --- | --- | --- |
| 0.0001 to 1 | 1 to 10 | 0.0001 to 1 | CC(C)(O)C#Cc1cnc2[nH]cc(-c3ccc4ncn(C(C)(C)C)c4c3)c2n1 [P-377, 4-[7-(3-tert-butylbenzimidazol-5-yl)-5H-pyrrolo[2,3-b]pyrazin-2-yl]-2-methyl-but-3-yn-2-ol] |
| 0.0001 to 1 | 10 to 200 | 0.0001 to 1 | COC(=O)c1cc(-c2cnc3[nH]cc(-c4ccc5ncn(C)c5c4)c3c2)ccc1C [P-119] |
| 0.0001 to 1 | 1 to 10 | 0.0001 to 1 | CS(=O)(=O)Nc1cccc(-c2cnc3[nH]cc(-c4ccc5c(c4)NCCO5)c3n2)c1 [P-085, N-[3-[7-(3,4-dihydro-2H-1,4-benzoxazin-6-yl)-5H-pyrrolo[2,3-b]pyrazin-2-yl]phenyl]methanesulfonamide] |
| 0.0001 to 1 | 10 to 200 | 0.0001 to 1 | COc1cnc2[nH]cc(-c3ccc4ncn(C)c4c3)c2c1 [P-016, 5-methoxy-3-(3-methylbenzimidazol-5-yl)-1H-pyrrolo[2,3-b]pyridine] |
| 0.0001 to 1 | 10 to 200 | 0.0001 to 1 | Cn1cnc2ccc(-c3c[nH]c4ncc(-c5cccc(S(N)(=O)=O)c5)cc34)cc21 [P-044, 3-[3-(3-methylbenzimidazol-5-yl)-1H-pyrrolo[2,3-b]pyridin-5-yl]benzenesulfonamide] |
| 0.0001 to 1 | 1 to 10 | 0.0001 to 1 | Cn1cnc2ccc(-c3c[nH]c4ncccc34)cc21 [P-009, 1-methyl-6-(1H-pyrrolo[2,3-b]pyridin-3-yl)benzimidazole] |
| 0.0001 to 1 | 1 to 10 | 0.0001 to 1 | CS(=O)(=O)Nc1cccc(-c2cnc3[nH]cc(-c4ccc5ncsc5c4)c3c2)c1 [P-053, N-[3-[3-(1,3-benzothiazol-6-yl)-1H-pyrrolo[2,3-b]pyridin-5-yl]phenyl]methanesulfonamide] |
| 10 to 200 | 10 to 200 | 1 to 10 | COc1cnc2[nH]cc(-c3ccc4occc4c3)c2c1 [P-036, 3-(benzofuran-5-yl)-5-methoxy-1H-pyrrolo[2,3-b]pyridine] |
| 1 to 10 | 10 to 200 | 1 to 10 | CS(=O)(=O)Nc1cccc(-c2cnc3[nH]cc(-c4ccc5c(c4)OC(F)(F)O5)c3n2)c1 [P-064, N-[3-[7-(2,2-difluoro-1,3-benzodioxol-5-yl)-5H-pyrrolo[2,3-b]pyrazin-2-yl]phenyl]methanesulfonamide] |
| 0.0001 to 1 | 10 to 200 | 0.0001 to 1 | Cn1cnc2ccc(-c3c[nH]c4ncc(-c5cccc(C(=O)NC6CC6)c5)cc34)cc21 [P-090, N-cyclopropyl-3-[3-(3-methylbenzimidazol-5-yl)-1H-pyrrolo[2,3-b]pyridin-5-yl]benzamide] |
| 0.0001 to 1 | 1 to 10 | 0.0001 to 1 | CC(C)(C)n1cnc2ccc(-c3c[nH]c4ncc(C5=CCN(C(=O)C6CC6)C5)nc34)cc21 [P-127, [3-[7-(3-tert-butylbenzimidazol-5-yl)-5H-pyrrolo[2,3-b]pyrazin-2-yl]-2,5-dihydropyrrol-1-yl]-cyclopropyl-methanone] |
| 0.0001 to 1 | 1 to 10 | 0.0001 to 1 | CC(=O)Nc1cccc(-c2cnc3[nH]cc(-c4ccc5ncn(C)c5c4)c3c2)c1 [P-116, N-[3-[3-(3-methylbenzimidazol-5-yl)-1H-pyrrolo[2,3-b]pyridin-5-yl]phenyl]acetamide] |
| 0.0001 to 1 | 10 to 200 | 0.0001 to 1 | CS(=O)(=O)Nc1cccc(-c2cnc3[nH]cc(-c4ccc5c(c4)N(CC(F)(F)F)CCO5)c3n2)c1 [P-087, N-[3-[7-[4-(2,2,2-trifluoroethyl)-2,3-dihydro-1,4-benzoxazin-6-yl]-5H-pyrrolo[2,3-b]pyrazin-2-yl]phenyl]methanesulfonamide] |
| 0.0001 to 1 | 10 to 200 | 0.0001 to 1 | Cn1cnc2ccc(-c3c[nH]c4ncc(-c5cccc(C(F)(F)F)c5)cc34)cc21 [P-132, 1-methyl-6-[5-[3-(trifluoromethyl)phenyl]-1H-pyrrolo[2,3-b]pyridin-3-yl]benzimidazole] |
| 0.0001 to 1 | 1 to 10 | 0.0001 to 1 | CNS(=O)(=O)c1cccc(-c2cnc3[nH]cc(-c4ccc5ncn(C)c5c4)c3n2)c1 [P-057, N-methyl-3-[7-(3-methylbenzimidazol-5-yl)-5H-pyrrolo[2,3-b]pyrazin-2-yl]benzenesulfonamide] |
| 0.0001 to 1 | 1 to 10 | 0.0001 to 1 | COc1cnc2[nH]cc(-c3ccc4[nH]nc(C)c4c3)c2c1 [P-083, 5-methoxy-3-(3-methyl-1H-indazol-5-yl)-1H-pyrrolo[2,3-b]pyridine] |
| 1 to 10 | 1 to 10 | 0.0001 to 1 | O=S(=O)(C1CC1)N1CC=C(c2cnc3[nH]cc(-c4ccc5[nH]cnc5c4)c3c2)CC1 [P-031, 3-(1H-benzimidazol-5-yl)-5-(1-cyclopropylsulfonyl-3,6-dihydro-2H-pyridin-4-yl)-1H-pyrrolo[2,3-b]pyridine] |
| 0.0001 to 1 | 1 to 10 | 0.0001 to 1 | COc1cnc2[nH]cc(-c3ccc4ncsc4c3)c2c1 [P-029, 6-(5-methoxy-1H-pyrrolo[2,3-b]pyridin-3-yl)-1,3-benzothiazole] |
| 0.0001 to 1 | 1 to 10 | 0.0001 to 1 | CCCS(=O)(=O)Nc1cccc(-c2cnc3[nH]cc(-c4ccc5ncn(C)c5c4)c3c2)c1 [P-121, N-[3-[3-(3-methylbenzimidazol-5-yl)-1H-pyrrolo[2,3-b]pyridin-5-yl]phenyl]propane-1-sulfonamide] |
| 1 to 10 | 0.0001 to 1 | 1 to 10 | c1cnc2[nH]cc(-c3ccc4[nH]ncc4c3)c2c1 [P-001, 3-(1H-indazol-5-yl)-1H-pyrrolo[2,3-b]pyridine] |
| 0.0001 to 1 | 10 to 200 | 0.0001 to 1 | Cn1cnc2ccc(-c3c[nH]c4ncc(-c5cccc(NS(C)(=O)=O)c5)nc34)cc21 [P-038, N-[3-[7-(3-methylbenzimidazol-5-yl)-5H-pyrrolo[2,3-b]pyrazin-2-yl]phenyl]methanesulfonamide] |
| 0.0001 to 1 | 1 to 10 | 0.0001 to 1 | CC(C)(C)n1cnc2ccc(-c3c[nH]c4ncc(-c5cnc(C(N)=O)c(Cl)c5)nc34)cc21 [P-364, 5-[7-(3-tert-butylbenzimidazol-5-yl)-5H-pyrrolo[2,3-b]pyrazin-2-yl]-3-chloro-pyridine-2-carboxamide] |
| 0.0001 to 1 | 0.0001 to 1 | 0.0001 to 1 | CS(=O)(=O)Nc1cccc(-c2cnc3[nH]cc(-c4ccc5ncn(C6CCCC6)c5c4)c3c2)c1 [P-066, N-[3-[3-(3-cyclopentylbenzimidazol-5-yl)-1H-pyrrolo[2,3-b]pyridin-5-yl]phenyl]methanesulfonamide] |
